According to US20180092908A1, “SMALL MOLECULE OXIDIZERS OF PDI AND THEIR USE” (THE TRUSTEES OF COLUMBIA UNIVERSITY IN THE CITY OF NEW YORK, priority 2015, published 2018):
Values after ≈ are worked out from the molar mass of the structure shown. Where two headings read alike, the source gives them in different places.

Legend:
cortical neurons = test: Tau4R-induced neurodegeneration brain slice assay; assay type: cell-based; conditions: rat corticostriatal brain slice, tau4R transfection, 4 days
Description: Rat corticostriatal brain slice explants co-transfected with YFP and the tau isoform with 4 tubulin-binding repeats (Tau4R) were treated with LOC14, an analog of LOC14 “BIT fragment” (1,2,Benzisothiazol-3-one), or DMSO only for 4 days. Data are plotted as mean±SEM from one of five representative experiments. *Significant by ANOVA followed by Dunnett's post hoc comparison test at p<0.05.
Next, whether LOC14 could be neuroprotective in additional models of neurodegenerative diseases was explored. […] In this rat corticostriatal brain slice assay, cortical neuron degeneration is induced by biolistic transfection with tau, in this case a tau isoform with 4 tubulin-binding repeats (“tau4R”) which is implicated in frontotemporal dementias and more broadly in Alzheimer's disease.

[1] = target: T1, human catalytic PDI A1 a domain (PDIa) (Homo sapiens, UniProt P07237); test: Isothermal titration calorimetry (ITC) binding to PDIa
T1 construct: made in house; host or cells: Escherichia coli BL21-Gold (DE3)

[2] = Mouse plasma protein binding assay; assay type: in vitro ADME; conditions: mouse; plasma, compound 2000 ng/mL, mean±SD (n=3)
Description: (§1) A test compound at the concentration of 2000 ng/mL in plasma was added into the sample chamber, and a dialysis buffer phosphate-buffered saline (PBS) was added into the buffer chamber, covering the unit with sealing tape and incubating for 4 hours at 37° C. at approximately 100 rpm on an orbital shaker. The incubation samples were taken from both plasma and buffer chamber at the end of the incubation, and then samples were analyzed by LC-MS/MS. Protein binding and free fraction percentage were determined using peak area ratio of analyte to internal standard. Fraction bound percent was calculated as: % Bound=100*(Cplasma−CPBS)/Cplasma. The fraction recovered percent was calculated as: % Recovery=(VPBS*CPBS+Vplasma*Cplasma)/(Vplasma*Cspike) where VPBS is Volume of PBS, Vplasma is Volume of Plasma, CPBS is Drug concentration in PBS (Analyte/IS peak area ratio), Cplasma is Drug concentration in plasma (Analyte/IS peak area ratio), Cspike is Drug concentration in spiked plasma (Analyte/IS peak area ratio).

plasma proteins = test: Mouse plasma protein binding assay; assay type: in vitro ADME; conditions: mouse plasma
Description: as §1

[3] = Mouse plasma stability assay; assay type: in vitro ADME; conditions: compound 1.0 μM
Description: Test compound (1 μM) was incubated at 37° C. for up to 120 minutes in mouse plasma. At 0, 15, 30, 60, and 120 minute intervals an 100 μL aliquot was taken and quenched with 200 μL acetonitrile (ACN) containing internal standard. Following completion of the experimentation, the samples were analyzed by LC-MS/MS. The half-life (t1/2) was calculated using the following equation: t1/2=0.693/k, where, k is the elimination rate constant of test compounds obtained by fitting the data to the equation: C=initial×exp (−k×t). Results were reported as peak area ratios of analyte to internal standard.
The microsome stability assay, plasma stability assay, and plasma protein binding assay were each performed by Alliance Pharma, Inc. (Malvern, Pa.).

[4] = target: T1, human catalytic PDI A1 a domain (PDIa); test: Isothermal titration calorimetry (ITC) binding to PDIa; conditions: 400 μM LOC14 into 40 μM oxidized PDIa, compared to reduced PDIa
[5] = Single-dose pharmacokinetic study (BBB penetration); assay type: in vivo; conditions: single-dose 20 mg/kg, intravenously or orally, mice
Description: LOC14 administered via (FIG. 17A) intravenous or (FIG. 17B) oral route to wild-type C57BL/6j mice at 20 mg/kg. The concentration of compound in the brain tissue and plasma is shown for each individual mouse (represented by dots). The horizontal lines represent the mean±SD (n=3).
Showing promising in vitro metabolic properties, LOC14 was tested in a single-dose pharmacokinetic (PK) study. This was a pilot study to evaluate the ability of LOC14 to traverse the blood-brain barrier (BBB). In this study, LOC14 was administered via two routes, intravenously (FIG. 17A) or orally (FIG. 17B), at a single-dose of 20 mg/kg to wild-type C57BL/6j mice.

physchem = conditions: organic solvent or mixture

T1 sequence (P07237 with tags, fused parts or gaps): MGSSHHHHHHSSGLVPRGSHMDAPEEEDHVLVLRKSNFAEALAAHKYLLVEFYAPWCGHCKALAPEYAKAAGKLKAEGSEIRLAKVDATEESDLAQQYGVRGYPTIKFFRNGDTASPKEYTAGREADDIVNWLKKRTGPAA

In the case of `O=C(C1CC1)N1CCN(Cn2sc3ccccc3c2=O)CC1` [LOC14, 2-((4-(cyclopropanecarbonyl)piperazin-1-yl)methyl)benzo[d]isothiazol-3(2H)-one], the “neuroprotection in tau-mediated neurodegeneration assay” value (cortical neurons) is reported as “strongly and reproducibly neuroprotective”, the “binding affinity to PDIa with 16F16 pre-treatment” value ([1]; 40 μM PDIa pre-treated overnight with 200 μM 16F16) is reported as “reduced” and the Kd ([1]; PDIa, Table 5, read-out: ITC Assay KD) is reported as 0.113 µM. For the same compound, the Kd ([1]; reduced PDIa 40 μM, compound 400 μM, 25° C., read-out: dissociation constant (Kd)) was 0.0617 ± 0.0056 µM, the recovery at 4 h, 2000 ng/mL [2] was 113.8 ± 0.76% and the “binding to the plasma proteins” value (plasma proteins) was “low binding”. For the same compound, the “% Remaining after 2-hour incubation” value [3] was 49.9%, the “Elimination rate constant (k)” value [3] was 0.0049 and the half-life at 1 μM ([3]; read-out: Half-life (t1/2) (converted)) was 2.4 h. For the same compound, the “binding affinity to oxidized PDIa” value [4] was “loss in binding affinity”, the blood-brain barrier penetration [5] was “penetrated the BBB” and the tolerability [5] was “well tolerated”. It also gave a solubility (physchem; DMSO) of 40 mg/mL (≈ 126 mM), a solubility (physchem; EtOH) of 20 mg/mL (≈ 63 mM) and a solubility (physchem; MeOH) of 40 mg/mL (≈ 126 mM). For the same compound, the solubility (physchem; NMP) was 80 mg/mL (≈ 252 mM).
